Columns and labels:
[1] = test system: angiogenesis into subcutaneously implanted disc; test: In vivo disc angiogenesis assay; settings: rat, 10 micrograms of drug per disc, 10 days after implantation
Description: (§1) This prediction has been borne out in studies examining the anti-angiogenic activity of the AT4 receptor antagonist, NORLEUAL, using an ex vivo aortic ring model (FIG. 5) and an in vivo disc angiogenesis assay system in rats (FIG. 6). The data shown in FIG. 5 illustrate the dramatic ability of an AT4 receptor antagonist to inhibit neovascular growth. Rat aortic rings were incubated for 24 hours in a growth factor rich medium (EGM-2) followed by 3 days of incubation in a basal medium (control) or basal media with varying concentrations of NORLEUAL. The data shown in FIG. 5A compare an untreated control ring and a ring treated with 10^−6 M NORLEUAL. […] Disks (1 cm diameter) composed of surgical sponge sandwiched between impermeable membranes were implanted subcutaneously in the backs of rats. In the center of the disks was a pellet containing the test material. The disks were removed 10 days after implantation, paraffin sectioned, stained with Coomassie blue, and analyzed by quantitative image analysis methods to determine the vascularized area. […] Data from discs containing no drug (control), an AT4 receptor agonist (Cpnd 1), or an AT4 receptor antagonist (Cpnds 2-4). Cmpd 2 is NORLEUAL. Each disc contained 10 micrograms of drug. Data is presented as the percent of the total disc area that is vascularized (Mean±SEM; n=8).

[2] = test system: bovine coronary venular endothelial cells (CVEC); settings: cultured CVEC (Hall et al., 1995); cited from earlier work
[3] = test system: Human umbilical vein endothelial cells (HUVEC); test: HUVEC growth, MTT assay; assay type: cell-based
Description: These initial observations were extended to human endothelial cells (FIG. 1A) where application of the high affinity agonist, Nle^1-Ang IV (Sardinia et al., 1994; Wright et al., 1999), produces a dose-dependent increase in growth. Human umbilical vein endothelial cells (HUVEC) were grown in EGM (Clonetics) and 10% calf serum for four days in the absence (control) or presence of 10^−8 M, 10^−10 M, or 10^−12 M Nle^1-Ang IV. Cell proliferation was estimated by monitoring mitochondrial activity with the redox-sensitive substrate 3-[4,5-Dimethylthiazol-2-yl]-2,5-diphenyltetrazolium bromide (MTT) (Carmicheal et al., 1987).
(§2) Most relevant for anti-angiogenic cancer treatment is the ability of AT4 antagonists to inhibit endothelial cell growth in culture. Attenuated growth has been observed with both CVECs and with HUVECs (FIG. 1B). After four days of treatment with 10^−10 M Nle^1, Leu^3-Ψ(CH2—NH2)^3-4-Ang IV (NORLEUAL), a potent AT4 receptor antagonist (Kramar et al., 2001), growth of CVECs was reduced to 25% of control (Mean±SEM; n=8; p<.001). […] Cell proliferation was again estimated using the MTT assay.

[4] = test system: HUVECs; test: Net deposition of extracellular matrix protein, Coomassie blue stain; assay type: cell-based, human; settings: 10^-12 M, 3 days
Excerpt: HUVECs and the mouse breast cancer cell line, +SA-WAZ-2T was exposed to the AT4 receptor antagonist NORLEUAL at 10^−12 M for 3 days. Cells were then stripped with 0.25% Triton X-100 and stained with Coomassie blue to visualize total ECM protein. Without an ECM platform endothelial cells fail to migrate and are unable to stabilize new blood vessels.

[5] = test system: +SA-WAZ-2T mouse breast cancer cells; test: Primary mammary tumor growth and vascularization with slow-release pellet; assay type: in vivo; settings: mice
Description: To test this prediction mice were implanted with […]+SA-WAZ-2T mouse breast cancer cells (a highly aggressive and metastatic cell line) (Danielson et al., 1980) directly into the mammary gland in the presence or absence of a slow-release pellet containing the AT4 antagonist, NORLEUAL at various concentrations (FIG. 7; FIG. 14[color version]). Mouse mammary glands were injected with 5×10^5 cells. […] Tumors were removed and weighed at various time points. Data shown represents one of three experiments that yielded identical results. […] Arrows indicate large blood vessels in the control tumor. […] The highest dose examined inhibited growth more than 97%. Equally dramatic as the reduced size of the tumors was their lack of vascularization. […] Tumors were harvested after 5 weeks of drug application and stained for Factor VIII. […] The quantitative data shown in FIG. 8B indicates the number of visible blood vessels in an average high power field. Data are mean+/−SEM, n=6.

[6] = test system: Rat aortic rings; test: Ex vivo rat aortic ring angiogenesis assay; settings: 3 days in basal medium with varying concentrations; p<0.02 for 10^-6 M
Description: as §1

[7] = test system: C6 glioma cells; test: Net deposition of extracellular matrix protein, Coomassie blue stain; assay type: cell-based; settings: 10^-12 M, 3 days
Description: (§3) Human dermal fibroblasts and C6 glioma cells (astrocyte tumor) were treated with 10^−12 M NORLEUAL for 3 days. Cells were stripped with 0.25 % Triton X-100 for 10 minutes and stained with either Coomassie blue (gliomas) or anti-fibronectin (fibroblasts). Stained dots remaining after treatment are nuclei. Although the mechanism responsible for the lose of ECM proteins has yet to be fully elucidated, a contributing factor could be AT4 receptor-dependent alterations in the expression of matrix metalloproteinases. Application of AT4 receptor ligands to rabbit cardiac fibroblasts initiated marked changes in the expression of various matrix metalloproteinases (MMPs) (FIG. 3). Conditioned media from cardiac fibroblasts treated with various AT4 receptor ligands for 12 hours was loaded and run on a 10% SDS-polyacrylamide gel containing the 1% gelatin, an MMP substrate. After renaturation and activation of MMPs, the gel was incubated at 37° C. for 24 hours to allow for the degradation of gelatin at sites within the gel where MMPs reside. These sites are seen as unstained lytic bands on a background of stained and undegraded gelatin. Lane one is control media from cells with no exposure to AT4 receptor ligands. Lanes 2-4 contained media from cells treated with Nle^1-Ang IV, a putative AT4 receptor agonist, at concentrations of 1 nM, 10 nM, and 100 nM respectively. […]

[8] = test system: MDA-MB-231 human breast cancer cells; test: MDA-MB-231 growth, MTT assay; assay type: cell-based; settings: 10^-12 M, four days in culture
Excerpt: Because of the marked effectiveness of AT4 receptor antagonists to inhibit the growth and metastasis of breast cancer in vivo, and the generally disappointing activity of anti-angiogenic molecules seen in clinical trials (Kerbel and Folkman, 2002), we decided to ascertain whether these drugs might have a direct effect on tumor cells as well as inhibiting angiogenesis. The growth of MDA-MB-23 1 cells, an aggressive estrogen-independent human cell line was inhibited by all concentrations that were examined (FIG. 10). Growth was assessed using the mitochondrial activity dye MTT after four days in culture. Growth was reduced to less than 25% of control by a concentration of NORLEUAL of 10^−12 M (Mean+/−SEM; n=6). […] The unusual reversed dose-response curve seen with the MDA-MB-231 cells may represent differential effects on multiple receptor subtypes with varied ligand affinities. […] The ability of AT4 receptor antagonists to inhibit both the angiogenic process as well as the proliferation of human cancer cells makes them unique among anti-cancer agents and provides a plausible explanation for their dramatic ability to inhibit tumor growth and metastasis.

[9] = test system: Human dermal fibroblasts; test: Net deposition of extracellular matrix protein, anti-fibronectin stain; assay type: cell-based; settings: 10^-12 M, 3 days
Description: as §3

[10] = test system: murine breast cancer cells; test: Lung metastasis after tail vein injection of breast cancer cells; assay type: in vivo, mice; settings: Elvax pellets with 0.3 mg bilaterally
Excerpt: In addition to inhibiting primary tumor growth, AT4 receptor antagonists are also effective at preventing the growth of lung metastases (as assessed by total lung weight and the presence of metastatic tumor nodules) in mice that have had breast cancer cells injected via the tail vein (FIG. 9). In these experiments the drug was applied using Elvax slow-release pellets that were implanted into the gluteus maximus muscle coincident with the injection of tumor cells into the tail vein. Mice were injected with 5×10^5 murine breast cancer cells and bilaterally implanted with Elvax pellets containing 0.3 mg of NORLEUAL. Lungs were harvested 7 weeks after tumor cell injection and weighed. […] In order to compare just the added lung weight due to tumor infiltration, tumor burden was calculated by subtracting the mean lung weight of wild type untreated controls from the weight of lungs from experimental groups. The mean lung weight of the untreated tumor controls was normalized to 100. Typically, the lung weights of cancer injected, non-treated mice were 50% greater than non-injected controls and treated mice. Spleen weight, another indication of tumor burden, was also normal in treated mice.

[11] = test system: bovine coronary venular endothelial cells (CVEC); test: CVEC growth, MTT assay; assay type: cell-based; settings: 10^-10 M, four days of treatment
Excerpt: as §2

Row | Substance | angiogenesis, percent of total disc area vascularized [1] | rate of 3H-thymidine incorporation [2] | maximum observed increase in endothelial cell proliferation ([3]; HUVEC, four days, 10^-8, 10^-10 or 10^-12 M) | density of endothelial-associated ECM [4] | inhibition of primary tumor growth ([5]; highest dose examined, Elvax pellet in mammary gland) | tumor vascularization, Factor VIII stained sections ([5]; tumors harvested after 5 weeks of drug application) | vessel growth in aortic rings [6] | growth of HUVECs, largest decrease ([3]; 10^-6 M) [% control] | deposited ECM [7] | growth of MDA-MB-231 cells [8] | deposited ECM [9] | lung metastases ([10]; mice, lungs harvested at 7 weeks) | spleen weight, indication of tumor burden ([10]; treated mice) | growth of CVECs [11]
1 | Nle^1-Ang IV | trend toward enhancing angiogenesis | augment the rate of ^3H-thymidine incorporation | 330 % of control levels |  |  |  |  |  |  |  |  |  |  | 
2 | Nle^1, Leu^3-Ψ(CH2—NH2)^3-4-Ang IV [NORLEUAL] |  |  |  | dramatic reduction in the density of the endothelial-associated ECM | more than 97% | nearly avascular | inhibition of vessel growth | 39 | near total loss of deposited ECM | less than 25 % of control | near total loss of deposited ECM | no gross or microscopic indication of metastases | normal | 25 % of control

Reference: US7118747B2, “AT4 receptor ligands as angiogenic, anti-angiogenic, and anti-tumor agents” (Pacific Northwest Biotechnology Inc., priority 2003, dated 2006)
